ChEMBL document CHEMBL3867473, “The comparison of neuroprotective effects of isoliquiritigenin and its Phase I metabolites against glutamate-induced HT22 cell death” (2016)
The source made the active and inactive calls. The calls are words filed in the database; no cut-off is given here.

Legend:
HT-22 [1] = assay: Neuroprotective activity against glutamate-induced oxidative stress in mouse HT22 cells assessed as ROS level at 10 uM pretreated for 12 hrs prior to glutamate-challenge measured after 12 hrs (reference value: 241.63 +/- 7.98%); type: functional
HT-22 [2] = assay: Neuroprotective activity in mouse HT22 cells assessed as decrease of glutamate-induced ROS production at 10 uM pretreated for 12 hrs prior to glutamate-challenge measured after 12 hrs by CM-H2CDFDA staining-based flow cytometry (reference value: 3.95 +/- 0.01); type: functional
[3] = Neuroprotective activity against glutamate-induced cell death in mouse HT22 cells assessed as cell viability at 10 uM pretreated for 12 hrs prior to glutamate-challenge measured after 12 hrs by MTT assay (reference value: 43.35 +/- 1.48%); type: functional; settings: HT-22, read-out: Activity
HT-22 [4] = assay: Inhibition of glutamate-induced increase in ERK phosphorylation in mouse HT22 cells at 5 uM pretreated for 12 hrs followed by glutamate-challenge measured after 12 hrs by Western blotting assay (reference value: 3.01 +/- 0.3); type: cell-based
HT-22 [5] = assay: Neuroprotective activity in mouse HT22 cells assessed as decrease in glutamate-induced reduction of full-length Bid level at 5 uM pretreated for 12 hrs prior to glutamate-challenge measured after 12 hrs by Western blotting assay (reference value: 0.9 +/- 0.05); type: functional
HT-22 [6] = assay: Neuroprotective activity in mouse HT22 cells assessed as decrease of glutamate-induced ROS production at 5 uM pretreated for 12 hrs prior to glutamate-challenge measured after 12 hrs by CM-H2CDFDA staining-based flow cytometry (reference value: 3.95 +/- 0.01); type: functional
HT-22 [7] = assay: Neuroprotective activity against glutamate-induced oxidative stress in mouse HT22 cells assessed as ROS level at 5 uM pretreated for 12 hrs prior to glutamate-challenge measured after 12 hrs (reference value: 241.63 +/- 7.98%); type: functional
HT-22 [8] = assay: Inhibition of glutamate-induced increase in JNK phosphorylation in mouse HT22 cells at 5 uM pretreated for 12 hrs followed by glutamate-challenge measured after 12 hrs by Western blotting assay (reference value: 1.84 +/- 0.11); type: cell-based
[9] = molecular target: MAP kinase p38 (Mus musculus) (UniProt P47811+O08911+Q9WUI1+Q9Z1B7); assay: Inhibition of glutamate-induced increase in p38 phosphorylation in mouse HT22 cells at 5 uM pretreated for 12 hrs followed by glutamate-challenge measured after 12 hrs by Western blotting assay (reference value: 2.46 +/- 0.96); type: cell-based; settings: HT-22
HT-22 [10] = assay: Neuroprotective activity in mouse HT22 cells assessed as decrease in glutamate-induced reduction of full-length Bid level at 5 uM pretreated for 12 hrs prior to glutamate-challenge measured after 12 hrs by Western blotting assay; type: functional, cell-based

SMILES | Activity (HT-22 [1]) [%] | fold change (FC) (HT-22 [2]) | viability at 10 µM [3] [%] | fold change (FC) (HT-22 [4]) | fold change (FC) (HT-22 [5]) | fold change (FC) (HT-22 [6]) | Activity (HT-22 [7]) [%] | fold change (FC) (HT-22 [8]) | fold change (FC) [9] | Activity (HT-22 [10])
O=c1c(O)c(-c2ccc(O)c(O)c2)oc2cc(O)cc(O)c12 [QUERCETIN] | 53.84 | 0.79 | 93.7 | 0.77 | 1.16 | – | – | – | – | –
O=C(/C=C/c1ccc(O)c(O)c1)c1ccc(O)cc1O [BUTEIN] | – | – | 92.5 | 1.49 | 1.22 | 0.69 | 59.79 | 0.73 | 0.75 | –
O=C(/C=C/c1ccc(O)cc1)c1ccc(O)cc1O [ISOLIQUIRITIGENIN] | – | – | 78.9 | 0.8 | 0.94 | 1.44 | 96.19 | 1 | 1.03 | –
O=C1/C(=C/c2ccc(O)c(O)c2)Oc2cc(O)ccc21 [SULFURETIN] | – | – | 93.7 | 2.02 | – | 1.82 | 102.25 | 0.72 | 1.09 | Active
O=C(/C=C/c1ccc(O)cc1)c1cc(O)c(O)cc1O | – | – | 83.5 | 1.64 | – | 2.39 | 137.94 | 1.08 | 1.21 | Active
